According to patent US9945845B2, “Methods of screening using amphibians” (priority 2009, dated 2018):
“Also recorded” adds a separate entry of the source. Structures can show the parent of a compound that is named as a salt. Where two headings read alike, the source gives them in different places.

Assays:
LEC [1] = assay: LEC cell proliferation assay; format: cell-based, human; settings: 10 μM in 0.1% DMSO, 48 hours; for activity at 10 µM: Homo sapiens, 48 h, read-out: LEC proliferation
Procedure: (§1) Human umbilical vein endothelial cells (HUVEC) were purchased from PromoCell. […] HUVEC and LEC were cultured in endothelial basal medium EBM (Cambrex) supplemented with 20% fetal bovine serum (Invitrogen), antibiotic-antimycotics (100 U/ml penicillin, 100 μg/ml streptomycin, 250 ng/ml amphotericin; Invitrogen). 2 mM L-glutamine (Invitrogen), 10 μg/ml hydrocortisone (Fluka) and 25 μg/ml N^6,2′-O-dibutyryladenosine 3′,5′-cyclic monophosphate sodium salt (Fluka) for up to eleven passages.
(§2) The intensity of fluorescence, which is proportional to the number of viable cells, was measured using a microplate reader (SpectraMax Gemini EM; Molecular Devices). The chemical treatments were performed in five replicates.
(§3) The cell proliferation assays were performed by treating the endothelial cell cultures with compounds at a screening dose of 10 μM in 0.1% DMSO for 48 hours (FIG. 6a; Table 10).

Xenopus embryos = settings: for Lethality (NF) / Onset (NF) / edema or other phenotype in compound-treated Xenopus embryos/tadpoles (in words): 20 μM, 1% DMSO; for Embr. phen.: embryonic phenotype in the primary screen; for Lethality: — = no stage of lethality given; for Onset (NF): onset of edema
Procedure, shortened: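 Stage 31 (37 hpf) Xenopus embryos, five per well, exposed to 20 µM compound in 1% DMSO at 23 °C for 4 days. Edema, lethality and other external phenotypes were scored daily by two investigators at stages 39, 41, 45 and 47.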

HUVEC [2] = assay: HUVEC tube formation assay; format: cell-based, human; settings: 1 μM in 0.1% DMSO; for activity at 1 µM: Homo sapiens, HUVEC
Procedure: as §1
(§4) The effect of the selected chemicals on the formation of tube-like structures was performed as follows. […] After overnight incubation at 37° C. the treated cell cultures were fixed with 4% paraformaldehyde. Each chemical treatment was performed in triplicate and the experiment was repeated at least three times. Three representative images of hotspots with tube-like structures were taken per well using a digital camera (AxioCam MRm, Carl Zeiss) mounted on an inverted microscope (Axiovert 200M, Carl Zeiss). The length of the tube-like structures was measured using the IPLab software (BD Biosciences). For each experimental condition, results are represented as average total tube length (μm) per area (three image fields).
(§5) The effects of the selected compounds on endothelial tube formation was assessed after over treatment of LEC and HUVEC cultures at a compound concentration of 1 μM in 0.1% DMSO. The length of the tube-like structures was measured using the IPLab software.

HUVEC [3] = assay: HUVEC cell proliferation assay; format: cell-based, human; settings: 10 μM in 0.1% DMSO, 48 hours; for activity at 10 µM: Homo sapiens, HUVEC, 48 h, read-out: HUVEC proliferation
Procedure: as §1, §2, §3

LEC [4] = assay: cells; format: cell-based, human; settings: 1 μM in 0.1% DMSO; for activity at 1 µM: Homo sapiens
Procedure: as §1, §4, §5

[5] = test system: blood vessel development and/or lymphangiogenesis in Xenopus embryos; format: in vivo, Xenopus laevis; settings: for blood vessel development phenotype (apj expression, in words): 20 μM from stage 31, fixed at stage 35/36; for lymph vessel development phenotype (vegfr3 expression, in words): 20 μM from stage 31, fixed at stage 42; for ALH phenotype: anterior lymph heart; for ALS phenotype: anterior lymph sac; for ISV phenotype: intersomitic vessels; for PCV phenotype: posterior cardinal vein; for PLV phenotype: posterior lymph vessels; for VVN phenotype: vitelline vein network
Procedure, shortened: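 Albino Xenopus embryos treated at 20 μM final (from 10-mM DMSO stocks) in screening medium, 7 per well, from stage 31 (37 hpf) to stage 35/36 (50 hpf) or 42 (80 hpf). Fixed in 4% paraformaldehyde and scored by whole-mount in situ hybridization: vasculogenesis and intersomitic vein angiogenesis at stage 35/36, lymph vessel development at stage 42.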

[6] = compounds causing edema, treatment from stage 31, scored to stage 47
[7] = treatment from stage 31, Nieuwkoop & Faber stage
[8] = overnight, read-out: HUVEC tube formation
[9] = read-out: HUVEC tube formation (tube length)
[10] = overnight, read-out: LEC tube formation
[11] = read-out: LEC tube formation (tube length)
[12] = compounds causing lethality, treatment from stage 31, Nieuwkoop & Faber stage

Row | Compound | Lethality (NF) (Xenopus embryos; [6]) | Type of edema Pericordial (Xenopus embryos; embryonic stage) | Lethality (Xenopus embryos; embryonic stage) | Onset (NF) (Xenopus embryos; [7]) | blood vessel development phenotype (apj expression, in words) [5] | ALH phenotype ([5]; Xenopus embryos) | ALS phenotype ([5]; Xenopus embryos) | ISV phenotype ([5]; Xenopus embryos) | PCV phenotype ([5]; Xenopus embryos) | PLV phenotype ([5]; Xenopus embryos) | VVN phenotype ([5]; Xenopus embryos) | activity at 10 µM (LEC [1]) [%] | activity at 1 µM (HUVEC [2]; [8]) [%] | activity at 1 µM (HUVEC [2]; [9]) [%] | activity at 10 µM (HUVEC [3]) [%] | activity at 1 µM (LEC [4]; [10]) [%] | activity at 1 µM (LEC [4]; [11]) [%] | further results
1 | Nc1ncnc2c1c(-c1ccc(Oc3ccccc3)cc1)cn2C1CCCC1 [7-Cyclopentyl-5-(4-phenoxy)phenyl-7H-pyrrolo[2,3-d]pyrimidin-4-ylamine] | 45 NF | 41/42 | 45 embryonic stages according to Nieuwkoop and Faber (NF) | 41/42 | interfered with angiogenic ISV sprouting but not with VVN assembly | impaired | impaired | stunted | normal | hypoplastic | normal |  |  |  |  |  |  | LEC proliferation (LEC [1]): O (O, inactive or marginal effects (85-115% of control);); Embr. phen. (Xenopus embryos): EDE; Type of edema Pronephric (Xenopus embryos; embryonic stage): 41/42; HUVEC tube formation (HUVEC [2]; overnight): − − (− −, strong inhibition (<50% of control);); HUVEC proliferation (HUVEC [3]): O (O, inactive or marginal effects (85-115% of control);); LEC tube formation (LEC [4]; overnight): − − (− −, strong inhibition (<50% of control);); lymph vessel development phenotype (vegfr3 expression, in words) [5]: lymphangiogenesis was strongly suppressed
2 | O=c1c(-c2ccc(O)cc2)coc2cc(O)cc(O)c12 [Genistein, 5,7-Dihydroxy-3-(4-hydroxyphenyl)-4H-1-benzopyran-4-one] | 46 NF |  | 41/42 | 35/36 | stunted ISVs and hyperplastic VVN | impaired | impaired | stunted | normal | impaired | hyperplastic | 85 to 115 | 50 to 85 | 50 to 85 | 85 to 115 | 50 to 85 | 50 to 85 | edema or other phenotype in compound-treated Xenopus embryos/tadpoles (in words) (Xenopus embryos; treatment from stage 31): edemas localized to the tail tip; Type of edema Tail tip (Xenopus embryos; embryonic stage): 35/36; lymph vessel development phenotype (vegfr3 expression, in words) [5]: lymphatic vessels and LECs were absent
3 | COc1cc(OC)c(C=C2C(O)=Nc3ccccc32)c(OC)c1 [IC 261, 1,3-Dihydro-3-[(2,4,6-trimethoxyphenyl)methylene]-2H-indol-2-one] | 41/42 | 35/36 | 41/42 | 35/36 | interfered with blood vessel vasculogenesis and PCV assembly |  |  | impaired | hypoplastic |  | hypoplastic | 50 to 85 | 50 to 85 | 50 to 85 | 85 to 115 | 50 to 85 | 50 to 85 | effect on LEC proliferation (in words) (LEC [1]): inhibited preferentially LEC proliferation; Type of edema Proctodeal (Xenopus embryos; embryonic stage): 41/42; Type of edema Pronephric (Xenopus embryos; embryonic stage): 41/42
4 | CCCCOC(=O)NS(=O)(=O)c1sc(CC(C)C)cc1-c1ccc(Cn2c(CC)nc3c(C)cc(C)nc32)cc1 [L-162,313] |  |  |  |  | potent inhibitors of developmental angiogenesis |  |  | impaired | normal |  | hypoplastic |  |  |  |  |  |  | LEC proliferation (LEC [1]): O (O, inactive or marginal effects (85-115% of control);); Lethality (NF) (Xenopus embryos; [12]): 45 NF; Embr. phen. (Xenopus embryos): LET; HUVEC tube formation (HUVEC [2]; overnight): − (−, moderate inhibition (50-85% of control):); HUVEC proliferation (HUVEC [3]): + (+, moderate promotion (>115-150% of control).); LEC tube formation (LEC [4]; overnight): − (−, moderate inhibition (50-85% of control):); Lymphatic phenotype ([5]; Xenopus embryos): normal
5 | CC(C)c1ccc2c(c1)c(SC(C)(C)C)c(CC(C)(C)C(=O)[O-])n2Cc1ccc(Cl)cc1.[Na+] [MK-886, 3[3-tert-Butylthio-1-(4-chlorobenzyl)-5-isopropyl-1H-indol-2-yl]-2,2-dimethylpropionic acid, sodium salt] |  |  |  |  | hypoplasia of the VVN |  |  | normal | normal |  | hypoplastic | 85 to 115 | 50 to 85 | 50 to 85 | 115 to 150 | 50 to 85 | 50 to 85 | edema or other phenotype in compound-treated Xenopus embryos/tadpoles (in words) (Xenopus embryos; treatment from stage 31): causing lethality; Lethality (NF) (Xenopus embryos; [12]): 39 NF; Phenotype class in vivo ([5]; Xenopus embryos, 20 μM, vascular phenotype): VVN hypoplasia
6 | COC(=O)C1=C(C)NC(C)=C(C(=O)OCCN(C)Cc2ccccc2)C1c1cccc([N+](=O)[O-])c1 (stereo not drawn) [Nicardipine hydrochloride] | 45 NF | 41/42 | 45 embryonic stages according to Nieuwkoop and Faber (NF) | 41/42 |  | dysplastic | dysplastic |  |  | hypoplastic |  | 85 to 115 | 85 to 115 | 85 to 115 | 85 to 115 | 85 to 115 | 85 to 115 | Type of edema Ventral (Xenopus embryos; embryonic stage, ‡ = edemas also detected in the gut): 41/42; lymph vessel development phenotype (vegfr3 expression, in words) ([5]; hydrochloride): inhibiting preferentially lymphatic vascular development; also recorded: discontinuatous, dysplastic lymphatic vessels; Blood vessel phenotype ([5]; Xenopus embryos): normal
7 | COC(=O)Nc1nc2ccc(C(=O)c3cccs3)cc2[nH]1 [Nocodazole] | 33/34 | 33/34 | 33/34 | 33/34 | interfered with blood vessel vasculogenesis and PCV assembly |  |  | impaired | hypoplastic |  | hypoplastic | 65 to 82 | < 50 | < 35 | 65 to 82 | < 50 | < 35 | 
